Measurements published in patent US10722520B2, “Heterocyclic compounds and their use in preventing or treating bacterial infections” (MUTABILIS, priority 2016, dated 2020).

Assays:
[1] = target: OXA-1 (Escherichia coli, UniProt P13661); settings: read-out: IC50 β-lactamase OXA-1; class (D); nitrocefin 200 μM, 30-min pre-incubation, enzyme 0.2 nM
[2] = target: SHV-1 (Klebsiella pneumoniae, UniProt P0AD64); settings: read-out: IC50 β-lactamase SHV-1; class (A); nitrocefin 200 μM, 30-min pre-incubation, enzyme 0.075 nM
[3] = test system: K. pneumoniae 6299; test: MIC of ceftazidime (CAZ) at fixed concentration of compound (synergy), broth microdilution; type: cell-based; settings: strain 6299; MIC of CAZ, compound fixed at 4 μg/mL
Experimental: (§1) Log phase bacterial suspensions were adjusted to a final density of 5×10^5 cfu/mL in cation-adjusted Mueller-Hinton broth (Becton-Dickinson) and added to each well (98 μL). Microplates were incubated for 16-20 h at 35° C. in ambient air. The MIC of the compounds was defined as the lowest concentration of said compounds that prevented bacterial growth as read by visual inspection.

[4] = test system: K. pneumoniae BAA-1898; test: as above; type: cell-based; settings: strain BAA-1898; MIC of CAZ, compound fixed at 4 μg/mL
Experimental: as §1

[5] = test system: P. aeruginosa CIP107051; test: as above; type: cell-based; settings: strain CIP107051; MIC of CAZ, compound fixed at 4 μg/mL
Experimental: as §1

[6] = test system: E. coli 190317; test: as above; type: cell-based; settings: strain 190317; MIC of CAZ, compound fixed at 4 μg/mL
Experimental: as §1

[7] = test system: E. cloacae P99; test: as above; type: cell-based; settings: strain P99; MIC of CAZ, compound fixed at 4 μg/mL
Experimental: as §1

[8] = target: OXA-15 (Pseudomonas aeruginosa, UniProt Q51574); settings: read-out: IC50 β-lactamase OXA-15; class (D); nitrocefin 200 μM, 30-min pre-incubation, enzyme 0.4 nM
[9] = target: CTX-M-15 (Escherichia coli, UniProt Q9EXV5); settings: read-out: IC50 β-lactamase CTX-M-15; class (A); nitrocefin 200 μM, 30-min pre-incubation, enzyme 0.4 nM
[10] = test system: K. pneumoniae 6299; test: MIC of compound alone, broth microdilution; type: cell-based; settings: strain 6299; compound alone
How it was run: (§2)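 Exponential-phase inoculum, 5×10^5 cfu/mL final, in cation-supplemented MHB; 35° C in air for 16-20 h. MIC: lowest concentration giving no visible growth.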

[11] = test system: K. pneumoniae BAA-1898; test: MIC of compound alone, broth microdilution; type: cell-based; settings: strain BAA-1898; compound alone
How it was run: as §2

[12] = test system: P. aeruginosa CIP107051; test: MIC of compound alone, broth microdilution; type: cell-based; settings: strain CIP107051; compound alone
How it was run: as §2

[13] = test system: E. coli 190317; test: MIC of compound alone, broth microdilution; type: cell-based; settings: strain 190317; compound alone
How it was run: as §2

[14] = test system: E. cloacae P99; test: MIC of compound alone, broth microdilution; type: cell-based; settings: strain P99; compound alone
How it was run: as §2

[15] = target: KPC-2 (Klebsiella pneumoniae, UniProt Q9F663); settings: read-out: IC50 β-lactamase KPC-2; class (A); nitrocefin 200 μM, 30-min pre-incubation, enzyme 1 nM
[16] = target: OXA-48 (Klebsiella pneumoniae, UniProt Q6XEC0); settings: read-out: IC50 β-lactamase OXA-48; class (D); nitrocefin 200 μM, 30-min pre-incubation, enzyme 0.3 nM
[17] = target: CMY-37 (Citrobacter freundii, UniProt P05193); settings: read-out: IC50 β-lactamase CMY-37; class (C); nitrocefin 200 μM, 30-min pre-incubation, enzyme 0.2 nM
[18] = target: TEM-1 (Escherichia coli, UniProt P62593); settings: read-out: IC50 β-lactamase TEM-1; class (A); nitrocefin 200 μM, 30-min pre-incubation, enzyme 0.1 nM
[19] = target: AmpC (PAE) (Pseudomonas aeruginosa, UniProt P24735); settings: read-out: IC50 β-lactamase AmpC (PAE); class (C); nitrocefin 200 μM, 30-min pre-incubation, enzyme 0.4 nM
[20] = target: OXA-11 (Pseudomonas aeruginosa, UniProt Q06778); settings: read-out: IC50 β-lactamase OXA-11; class (D); nitrocefin 200 μM, 30-min pre-incubation, enzyme 1.2 nM
[21] = target: AmpC (P99) (Enterobacter cloacae, UniProt P05364); settings: read-out: IC50 β-lactamase AmpC (P99); class (C); nitrocefin 200 μM, 30-min pre-incubation, enzyme 0.2 nM

SMILES | IC50 [1] | IC50 [2] | MIC combination of CAZ and compounds of the invention at 4 μg/mL [3] | MIC combination of CAZ and compounds of the invention at 4 μg/mL [4] | MIC combination of CAZ and compounds of the invention at 4 μg/mL [5] | MIC combination of CAZ and compounds of the invention at 4 μg/mL [6] | MIC combination of CAZ and compounds of the invention at 4 μg/mL [7] | IC50 [8] | IC50 [9] | MIC compounds of the invention alone [10] | MIC compounds of the invention alone [11] | MIC compounds of the invention alone [12] | MIC compounds of the invention alone [13] | MIC compounds of the invention alone [14] | IC50 [15] | IC50 [16] | IC50 [17] | IC50 [18] | IC50 [19] | IC50 [20] | other results
C/C(=N/O)c1cnn(C2=CC3CN(C2)C(=O)N3OS(=O)(=O)[O-])c1.[Na+] (stereo not drawn) [Example 39, sodium [3-[4-[(Z,E)-N-hydroxy-C-methyl-carbonimidoyl]pyrazol-1-yl]-7-oxo-1,6-diazabicyclo[3.2.1]oct-3-en-6-yl]sulfate] | 150 nM | 1.3 nM | 16 µg/mL | 128 µg/mL | 8 µg/mL | 1 µg/mL | 16 µg/mL | 8.5 nM | 0.56 nM | >32 µg/mL | >32 µg/mL | >32 µg/mL | >32 µg/mL | >32 µg/mL | 4.1 nM | 1.8 nM | 8.1 nM | 0.21 nM | 82 nM | 73 nM | IC50 [21]: 9.5 nM
NCCNC(=O)Cc1ccn(C2=CC3CN(C2)C(=O)N3OS(=O)(=O)[O-])n1.O=C(O)C(F)(F)F.[Na+] (stereo not drawn) [Example 48, sodium and 2,2,2-trifluoroacetate [3-[3-[2-(2-ammoniumethylamino)-2-oxo-ethyl]pyrazol-1-yl]-7-oxo-1,6-diazabicyclo[3.2.1]oct-3-en-6-yl]sulfate] | 940 nM | 5.3 nM | 0.25 µg/mL | 4 µg/mL | 4 µg/mL | <0.25 µg/mL | 0.5 µg/mL | 510 nM | 2.4 nM | >32 µg/mL | >32 µg/mL | >32 µg/mL | 4 µg/mL | 32 µg/mL | 130 nM | 36 nM | 80 nM | 1.4 nM | 310 nM | 200 nM | IC50 [21]: 110 nM
NCc1ccn(C2=CC3CN(C2)C(=O)N3OS(=O)(=O)[O-])n1.O=C(O)C(F)(F)F.[Na+] (stereo not drawn) [Example 49, sodium and 2,2,2-trifluoroacetate [3-[3-(ammoniummethyl)pyrazol-1-yl]-7-oxo-1,6-diazabicyclo[3.2.1]oct-3-en-6-yl]sulfate] | 670 nM | 8.5 nM | ≤0.25 µg/mL | ≤0.25 µg/mL | 4 µg/mL | <0.25 µg/mL | ≤0.25 µg/mL | 510 nM | 2.6 nM | >32 µg/mL | >32 µg/mL | >32 µg/mL | 2 µg/mL | 16 µg/mL | 180 nM | 46 nM | 150 nM | 1.2 nM | 1300 nM | 380 nM | IC50 [21]: 160 nM
O=C1N2CC(n3cc(-c4nccs4)nn3)=CC(C2)N1OS(=O)(=O)[O-].[Na+] (stereo not drawn) [Example 55, sodium [7-oxo-3-(4-thiazol-2-yltriazol-1-yl)-1,6-diazabicyclo[3.2.1]oct-3-en-6-yl]sulfate] | 26 nM | 0.61 nM | 4 µg/mL | 1 µg/mL | 8 µg/mL | 0.25 µg/mL | 8 µg/mL | 3.4 nM | 0.41 nM | >32 µg/mL | >32 µg/mL | >32 µg/mL | >32 µg/mL | >32 µg/mL | 0.82 nM | 0.27 nM | 35 nM | 0.14 nM | 230 nM | 25 nM | IC50 [21]: 6.3 nM
NC(=O)c1cn(C2=CC3CN(C2)C(=O)N3OS(=O)(=O)[O-])nn1.[Na+] (stereo not drawn) [Example 56, sodium [3-(4-carbamoyltriazol-1-yl)-7-oxo-1,6-diazabicyclo[3.2.1]oct-3-en-6-yl]sulfate] | 30 nM | 1 nM | ≤0.25 µg/mL | ≤0.25 µg/mL | 8 µg/mL | <0.25 µg/mL | ≤0.25 µg/mL | 9 nM | 0.44 nM | 32 µg/mL | 32 µg/mL | >32 µg/mL | 4 µg/mL | 8 µg/mL | 2.4 nM | 0.48 nM | 38 nM | 0.17 nM | 290 nM | 37 nM | IC50 [21]: 12 nM
NCc1cn(C2=CC3CN(C2)C(=O)N3OS(=O)(=O)[O-])nn1.O=C(O)C(F)(F)F.[Na+] (stereo not drawn) [Example 57, sodium and 2,2,2-trifluoroacetate [3-[4-(ammoniummethyl)triazol-1-yl]-7-oxo-1,6-diazabicyclo[3.2.1]oct-3-en-6-yl]sulfate] | 66 nM | 2.6 nM | ≤0.25 µg/mL | ≤0.25 µg/mL | 4 µg/mL | <0.25 µg/mL | <0.25 µg/mL | 6.4 nM | 0.75 nM | >32 µg/mL | 16 µg/mL | 16 µg/mL | 0.5 µg/mL | 1 µg/mL | 11 nM | 1.1 nM | 31 nM | 0.37 nM | 550 nM | 170 nM | IC50 [21]: 21 nM
